The values below come from EP4692079A1, “CYP11A1 INHIBITOR AND USE THEREOF” (priority 2023, dated 2024).

Read-outs that look alike come from different tables or passages of the source.

One may read the AUC(0-t) as the area under the concentration-time curve up to a stated or last time point. The half-life is the time in which the quantity being followed falls by half. Read a high half-life as slow loss. Usually clearance stands for the volume of plasma or blood freed of the substance per unit of time. Read a high clearance as efficient removal. A word on the IC50: it is the concentration at which inhibition is half-maximal.

Data set [1] in a line: Pharmacokinetic test in mice. The data set is classed as in vivo. The conditions noted are these: mouse, male ICR mice, plasma; for Vd: read-out: Vdss. On the procedure:
4.1. Experimental animals: Male ICR mice, 20-25 g, 6 mice/compound, were purchased from Chengdu Dossy Experimental Animals Co., Ltd.
4.2 Experimental design: on the day of the experiment, the ICR mice were randomly grouped according to their body weights. […] Table 6 Administration information
Before and after administration, 0.06 mL of blood was taken from the orbit under isoflurane anaesthesia and placed in an EDTAK2 centrifuge tube. The tube was centrifuged at 5000 rpm at 4°C for 10 min, and plasma was collected. […] Before analysis and detection, all samples were stored at -80°C, and the samples were quantitatively analysed by LC-MS/MS.

The nature of data set [2]: Pharmacokinetic test in rats. The class given is in vivo. The conditions noted are these: rat, male SD rats, plasma; for Vd: read-out: Vdss. On the procedure: 3.1 Experimental animals: Male SD rats (about 220 g, 6-8 weeks old, 6 rats/compound) were purchased from Chengdu Dossy Experimental Animals Co., Ltd.
3.2 Experimental design: On the day of the experiment, the SD rats were randomly grouped by body weight. […] Table 4 Administration information
Before and after the administration, 0.1 ml of blood was taken from the orbit of the animals under isoflurane anaesthesia and placed in an EDTAK2 centrifuge tube. The blood was centrifuged at 5000 rpm and 4°C for 10 min to collect plasma. […] Before analysis and detection, all samples were stored at -80°C. Table 5 Pharmacokinetic parameters of test compounds in plasma of rats

For data set [3], the system named is pregnenolone level in NCI-H295R cells. The data set is described as follows: cells. The conditions noted are these: Homo sapiens, 72 h; for IC50: read-out: Pregnenolone level in H295R (Elisa) IC50 nM; for inhibition at 0.1 µM: read-out: Pregnenolone level in H295R (Elisa) inh.% 100 nM; for inhibition at 1 µM: read-out: Pregnenolone level in H295R (Elisa) inh.% 1000 nM. The data set is classed as cell-based. On the procedure:
2. The purpose of the experimental study was intended to detect the pregnenolone level in the NCI-H295R cells by adopting the Enzyme linked immunosorbent assay (ELISA), so as to evaluate the inhibitory effects of the compounds on the pregnenolone level in the NCI-H295R cells.
The H295R cells were purchased from ATCC (CRL-2128), the cell complete medium contained DMEM: F12+ 10% FBS +0.00625 mg/ml insulin+0.00625 mg/mL transferrin+6.25 ng/mL selenium+1.25 mg/mL BSA+0.00535 mg/mL linoleic acid, and the cells were cultured in a 37°C, 5% CO2 incubator. The cells in the exponential growth phase were collected, and cultured in a cytokine-free medium (phenol red 1640-free +1% PS+10% css FBS+1.25 mg/mL BSA +0.00625 mg/mL insulin+0.00625 mg/mL transferrin+6.25 ng/mL selenium+0.00535 mg/mL linoleic acid) for three days. The cells in the exponential growth phase were collected on the third day. The cell suspension was adjusted with a cytokine-free medium to a corresponding concentration and plated at 60000 cells/well, with the volume being 90 µL/well. Subsequently, 10 µL of the compounds at different concentrations was added and the plate was incubated in a CO2 incubator for three days. After the incubation was completed, the cell culture supernatant was collected and centrifuged at 2°C-8°C at 800×g for 10 min. The resulting supernatant was collected. Determination was carried out according to the operation instructions for pregnenolone Elisa kit (Antibodies-A73791), and the OD450 signal was read.
2.1 Standard curve plotting. The standard concentration was taken as the abscissa and the OD450 value as the ordinate, the coordinate points of various standards were connected with a smooth line and a curve was fitted according to the four parameter logistic (4-PL) method.
2.2 Sample quantification: The corresponding concentration (CONC) of testosterone/pregnenolone in the sample was calculated using the absorbance value of the sample and the standard curve. According to formula (1), the inhibition rate of the compound at various concentrations was calculated, and S-shaped concentration curves were plotted and the IC50 values (i.e., concentration of the compound at which the inhibition rate was 50%) were calculated using a three parameter non-linear regression model in Graphpad Prim 8.0 software. CONC cpd was the concentration of the treated group, and CONC ctrl was the average concentration value of the solvent control group. Inhibition rate% = 100%−CONCcpd /CONCctrl × 100% [formula] Table 3 Inhibitory effects of compounds on pregnenolone level in NCI-H295R cells

Data set [4] concerns testosterone level in NCI-H295R cells. The data set is described as follows: cells. The conditions noted are these: Homo sapiens, NCI-H295R, 72 h; for IC50: read-out: Testosterone level in H295R (Elisa) IC50 nM. The class given is cell-based.
Setting [5] is: po, intragastric administration (10 mg/kg).
Setting [6] is: intravenous administration (2.5 mg/kg).
Where [7] appears, read: read-out: Testosterone level in H295R (Elisa) inh.% 100 nM.
Where [8] appears, read: read-out: Testosterone level in H295R (Elisa) inh.% 1000 nM.

Regarding `CS(=O)(=O)N1CC(OC(=O)N2CCC(COc3coc(CN4Cc5ccc(C(F)(F)F)cc5C4)cc3=O)CC2)C1` [Compound 17], in data set [1] (setting [5]), the AUC(0-t) amounted to 17800 ng·h/mL and the half-life was 2.42 h. Moreover, in data set [1] (setting [6]), the AUC(0-t) amounted to 4790 ng·h/mL, the clearance is 8.73 mL/min/kg, the half-life was 2.96 h and the Vd stood at 1.81 L/kg. In data set [2] (setting [5]), this molecule showed an exposure AUC(0-t) of 5240 ng·h/mL and a half-life of 2.72 h. Also, in data set [2] (setting [6]), the AUC(0-t) turned out to be 1680 ng·h/mL, the clearance came out at 24.4 mL/min/kg, the half-life is 1.59 h and the Vd was found to be 2.53 L/kg. Besides, in data set [3], the IC50 amounted to 773 nM, the inhibition at 0.1 µM came out at 64.9% and the inhibition at 1 µM came to 75.2%. In addition, the inhibition at 0.1 µM in data set [4] (read-out: Testosterone level in H295R (Elisa) inh.% 100 nM, 100 nM compound, NCI-H295R cells, three days incubation) came to 91.6%. In data set [4] (read-out: Testosterone level in H295R (Elisa) inh.% 1000 nM, 1000 nM compound, NCI-H295R cells, three days incubation), the inhibition at 1 µM was found to be 93.6%.
Turning to `O=C(N[C@H]1CC[C@H](/C=C/c2coc(CN3Cc4ccc(C(F)(F)F)cc4C3)cc2=O)CC1)C1CC1` [Compound 61], the area under the curve AUC(0-t) is 32100 ng·h/mL in data set [1] (setting [5]), 6080 ng·h/mL in data set [1] (setting [6]), 17400 ng·h/mL in data set [2] (setting [5]) and 5590 ng·h/mL in data set [2] (setting [6]). The half-life in data set [1] (setting [5]) was 3.47 h; in data set [1] (setting [6]), 3.73 h; in data set [2] (setting [5]), 3.03 h; in data set [2] (setting [6]), 2.58 h. Further, the clearance in data set [1] (setting [6]) is 6.8 mL/min/kg; in data set [2] (setting [6]), 7.49 mL/min/kg. The Vd in data set [1] (setting [6]) turned out to be 1.75 L/kg; in data set [2] (setting [6]), 1.42 L/kg. Further, the IC50 turned out to be 370 nM in data set [3] and 162 nM in data set [4]. The inhibition at 0.1 µM in data set [4] (setting [7]) is 71%. In data set [4] (setting [8]), the inhibition at 1 µM came to 79%.
With `[2H]C([2H])([2H])n1cc(C(=O)N[C@H]2CC[C@H](CCc3coc(CN4Cc5ccc(C(F)(F)F)cc5C4)cc3=O)CC2)cn1` [Compound 118], the AUC(0-t) in data set [1] (setting [5]) came out at 28000 ng·h/mL; in data set [1] (setting [6]), 7980 ng·h/mL; in data set [2] (setting [5]), 11400 ng·h/mL; in data set [2] (setting [6]), 5200 ng·h/mL. For the same molecule, the half-life in data set [1] (setting [5]) was 3.45 h; in data set [1] (setting [6]), 2.78 h; in data set [2] (setting [5]), 4.41 h; in data set [2] (setting [6]) it was 1.58 h. Further, the clearance in data set [1] (setting [6]) was found to be 5.22 mL/min/kg; in data set [2] (setting [6]), 8.18 mL/min/kg. Also, the values for the Vd in data set [1] (setting [6]) and in data set [2] (setting [6]) were 0.966 L/kg and 0.755 L/kg, respectively. For the same molecule, the values for the concentration for half-maximal inhibition (IC50) in data set [3] and in data set [4] were 71 nM and 36 nM, respectively. The inhibition at 0.1 µM in data set [4] (setting [7]) stood at 70%. In addition, in data set [4] (setting [8]), the inhibition at 1 µM is 83%.
In the case of `[2H]C([2H])([2H])n1cc(C(=O)N[C@H]2CC[C@H](/C=C/c3coc(CN4Cc5ccc(C(F)(F)F)cc5C4)cc3=O)CC2)cn1` [Compound 81], the AUC(0-t) stood at 68500 ng·h/mL in data set [1] (setting [5]), 22600 ng·h/mL in data set [1] (setting [6]), 40500 ng·h/mL in data set [2] (setting [5]) and 12900 ng·h/mL in data set [2] (setting [6]). In addition, the half-life in data set [1] (setting [5]) was 5.38 h; in data set [1] (setting [6]) it was 6.99 h; in data set [2] (setting [5]), 4.29 h; in data set [2] (setting [6]) it was 3.18 h. Moreover, the clearance turned out to be 1.69 mL/min/kg in data set [1] (setting [6]) and 3.22 mL/min/kg in data set [2] (setting [6]). For the same molecule, the results for the Vd in data set [1] (setting [6]) and in data set [2] (setting [6]) were 0.86 L/kg and 0.704 L/kg, respectively. Further, the half-inhibitory concentration (IC50) in data set [3] came out at 146 nM; in data set [4], 102 nM. For the same molecule, in data set [4] (setting [7]), the inhibition at 0.1 µM is 63%. Moreover, the inhibition at 1 µM in data set [4] (setting [8]) is 83%.
On to `O=C(N[C@H]1CC[C@H](/C=C/c2coc(CN3Cc4ccc(C(F)(F)F)cc4C3)cc2=O)CC1)C1CC(F)(F)C1` [Compound 88], for which, in data set [1] (setting [5]), the AUC(0-t) was determined as 23600 ng·h/mL and the half-life was 4.48 h. In data set [1] (setting [6]), the exposure AUC(0-t) stood at 8550 ng·h/mL, the clearance was 4.82 mL/min/kg, the half-life was 4.49 h and the Vd worked out at 1.54 L/kg. In data set [3], the IC50 was 94 nM, the inhibition at 0.1 µM was found to be 41.6% and the inhibition at 1 µM is 64.5%. The IC50 in data set [4] is 59 nM. The inhibition at 0.1 µM in data set [4] (setting [7]) came out at 76%. Further, the inhibition at 1 µM in data set [4] (setting [8]) is 86%.
